Reference: PubChem BioAssay (NCI)
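The concentration for 50% growth inhibition is given as GI50. TGI: total growth inhibition.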

Columns and labels:
Assay in all cases: growth of human tumour cells (NCI), 384-well format
786-0 renal = system: 786-0 renal
A498 renal = system: A498 renal
A549 NSCLC = system: A549 NSCLC
ACHN renal = system: ACHN renal
BT-549 breast = system: BT-549 breast
CAKI-1 renal = system: CAKI-1 renal
CCRF-CEM leukemia = system: CCRF-CEM leukemia
COLO 205 colon = system: COLO 205 colon
DU-145 prostate = system: DU-145 prostate
EKVX NSCLC = system: EKVX NSCLC
HCC-2998 colon = system: HCC-2998 colon
HCT-116 colon = system: HCT-116 colon
HCT-15 colon = system: HCT-15 colon
HL-60(TB) leukemia = system: HL-60(TB) leukemia
HOP-62 NSCLC = system: HOP-62 NSCLC
HOP-92 NSCLC = system: HOP-92 NSCLC
HS 578T breast = system: HS 578T breast
HT29 colon = system: HT29 colon
IGROV1 ovarian = system: IGROV1 ovarian
K-562 leukemia = system: K-562 leukemia
KM12 colon = system: KM12 colon
LOX IMVI melanoma = system: LOX IMVI melanoma
M14 melanoma = system: M14 melanoma
MALME-3M melanoma = system: MALME-3M melanoma
MCF7 breast = system: MCF7 breast
MDA-MB-435 melanoma = system: MDA-MB-435 melanoma
MDA-MB-468 breast = system: MDA-MB-468 breast
MOLT-4 leukemia = system: MOLT-4 leukemia
NCI-H226 lung = system: NCI-H226 lung
NCI-H23 lung = system: NCI-H23 lung
NCI-H322M lung = system: NCI-H322M lung
NCI-H460 NSCLC = system: NCI-H460 NSCLC
NCI-H522 lung = system: NCI-H522 lung
NCI/ADR-RES ovarian = system: NCI/ADR-RES ovarian
OVCAR-3 ovarian = system: OVCAR-3 ovarian
OVCAR-4 ovarian = system: OVCAR-4 ovarian
OVCAR-8 ovarian = system: OVCAR-8 ovarian
PC-3 prostate = system: PC-3 prostate
RPMI-8226 leukemia = system: RPMI-8226 leukemia
RXF 393 renal = system: RXF 393 renal
SF-268 CNS = system: SF-268 CNS
SF-295 CNS = system: SF-295 CNS
SF-539 CNS = system: SF-539 CNS
SK-MEL-2 melanoma = system: SK-MEL-2 melanoma
SK-MEL-28 melanoma = system: SK-MEL-28 melanoma
SK-MEL-5 melanoma = system: SK-MEL-5 melanoma
SK-OV-3 ovarian = system: SK-OV-3 ovarian
SN12C renal = system: SN12C renal
SNB-19 CNS = system: SNB-19 CNS
SNB-75 CNS = system: SNB-75 CNS
SW-620 colon = system: SW-620 colon
TK-10 renal = system: TK-10 renal
U251 glioblastoma = system: U251 glioblastoma
UACC-257 melanoma = system: UACC-257 melanoma
UACC-62 melanoma = system: UACC-62 melanoma

Question: Which GI50 ([…]-0 renal) does the source give for `CN(C)CC(C)(CN(C)C)C(=O)/C=C/c1c(Cl)cccc1Cl` here?
Answer: 1.79 µM

Question: What about the TGI (786-0 renal) of the same molecule?
Answer: 3.22 µM

Question: What about the GI50 (A498 renal) of the same molecule?
Answer: 2.29 µM

Question: And the TGI (A498 renal)?
Answer: 4.6 µM

Question: And the GI50 (A549 NSCLC)?
Answer: 3.72 µM

Question: What about the TGI (A549 NSCLC) of the same molecule?
Answer: 13.2 µM

Question: And the GI50 (ACHN renal)?
Answer: 1.88 µM

Question: What about the TGI (ACHN renal) of the same molecule?
Answer: 3.31 µM

Question: And the GI50 (BT-549 breast)?
Answer: 2.52 µM

Question: What about the TGI (BT-549 breast) of the same molecule?
Answer: 5.73 µM

Question: What about the GI50 (CAKI-1 renal) of the same molecule?
Answer: 1.81 µM

Question: And the TGI (CAKI-1 renal)?
Answer: 3.23 µM

Question: What about the GI50 (CCRF-CEM leukemia) of the same molecule?
Answer: 1.58 µM

Question: And the TGI (CCRF-CEM leukemia)?
Answer: 2.96 µM

Question: What about the GI50 (COLO 205 colon) of the same molecule?
Answer: 2.17 µM

Question: What about the TGI (COLO 205 colon) of the same molecule?
Answer: 3.66 µM

Question: What about the GI50 (DU-145 prostate) of the same molecule?
Answer: 5.18 µM

Question: And the TGI (DU-145 prostate)?
Answer: 16 µM

Question: And the GI50 (EKVX NSCLC)?
Answer: 4.28 µM

Question: And the TGI (EKVX NSCLC)?
Answer: 14.1 µM

Question: What about the GI50 (HCC-2998 colon) of the same molecule?
Answer: 2.24 µM

Question: What about the TGI (HCC-2998 colon) of the same molecule?
Answer: 6.9 µM

Question: What about the GI50 (HCT-116 colon) of the same molecule?
Answer: 2.03 µM

Question: What about the TGI (HCT-116 colon) of the same molecule?
Answer: 3.53 µM

Question: What about the GI50 (HCT-15 colon) of the same molecule?
Answer: 1.86 µM

Question: And the TGI (HCT-15 colon)?
Answer: 3.33 µM

Question: What about the GI50 (HL-60(TB) leukemia) of the same molecule?
Answer: 1.01 µM

Question: What about the TGI (HL-60(TB) leukemia) of the same molecule?
Answer: 2.18 µM

Question: And the GI50 (HOP-62 NSCLC)?
Answer: 2.32 µM

Question: And the TGI (HOP-62 NSCLC)?
Answer: 3.96 µM

Question: What about the GI50 (HOP-92 NSCLC) of the same molecule?
Answer: 2.17 µM

Question: And the TGI (HOP-92 NSCLC)?
Answer: 3.65 µM

Question: What about the GI50 (HS 578T breast) of the same molecule?
Answer: 2.17 µM

Question: What about the TGI (HS 578T breast) of the same molecule?
Answer: 4.24 µM

Question: And the GI50 (HT29 colon)?
Answer: 1.87 µM

Question: What about the TGI (HT29 colon) of the same molecule?
Answer: 3.41 µM

Question: What about the GI50 (IGROV1 ovarian) of the same molecule?
Answer: 1.87 µM

Question: And the TGI (IGROV1 ovarian)?
Answer: 3.36 µM

Question: What about the GI50 (K-562 leukemia) of the same molecule?
Answer: 4.98 µM

Question: What about the TGI (K-562 leukemia) of the same molecule?
Answer: 15.9 µM

Question: What about the GI50 (KM12 colon) of the same molecule?
Answer: 1.22 µM

Question: And the TGI (KM12 colon)?
Answer: 2.92 µM

Question: What about the GI50 (LOX IMVI melanoma) of the same molecule?
Answer: 1.67 µM

Question: And the TGI (LOX IMVI melanoma)?
Answer: 3.15 µM

Question: And the GI50 (M14 melanoma)?
Answer: 2.09 µM

Question: What about the TGI (M14 melanoma) of the same molecule?
Answer: 4 µM

Question: And the GI50 (MALME-3M melanoma)?
Answer: 2.16 µM

Question: And the TGI (MALME-3M melanoma)?
Answer: 3.61 µM

Question: And the GI50 (MCF7 breast)?
Answer: 0.512 µM

Question: And the TGI (MCF7 breast)?
Answer: 1.76 µM

Question: And the GI50 (MDA-MB-435 melanoma)?
Answer: 3.9 µM

Question: And the TGI (MDA-MB-435 melanoma)?
Answer: 11.6 µM

Question: What about the GI50 (MDA-MB-468 breast) of the same molecule?
Answer: 2.1 µM

Question: And the TGI (MDA-MB-468 breast)?
Answer: 3.59 µM

Question: What about the GI50 (MOLT-4 leukemia) of the same molecule?
Answer: 1.54 µM

Question: And the TGI (MOLT-4 leukemia)?
Answer: 2.89 µM

Question: And the GI50 (NCI-H226 lung)?
Answer: 1.76 µM

Question: What about the TGI (NCI-H226 lung) of the same molecule?
Answer: 3.34 µM

Question: And the GI50 (NCI-H23 lung)?
Answer: 2.47 µM

Question: And the TGI (NCI-H23 lung)?
Answer: 5.04 µM

Question: What about the GI50 (NCI-H322M lung) of the same molecule?
Answer: 3.86 µM

Question: What about the TGI (NCI-H322M lung) of the same molecule?
Answer: 12.3 µM

Question: And the GI50 (NCI-H460 NSCLC)?
Answer: 1.97 µM

Question: And the TGI (NCI-H460 NSCLC)?
Answer: 3.59 µM

Question: And the GI50 (NCI-H522 lung)?
Answer: 1.71 µM

Question: What about the TGI (NCI-H522 lung) of the same molecule?
Answer: 3.09 µM

Question: What about the GI50 (NCI/ADR-RES ovarian) of the same molecule?
Answer: 2.14 µM

Question: What about the TGI (NCI/ADR-RES ovarian) of the same molecule?
Answer: 3.82 µM

Question: What about the GI50 (OVCAR-3 ovarian) of the same molecule?
Answer: 1.91 µM

Question: And the TGI (OVCAR-3 ovarian)?
Answer: 3.37 µM

Question: What about the GI50 (OVCAR-4 ovarian) of the same molecule?
Answer: 1.81 µM

Question: And the TGI (OVCAR-4 ovarian)?
Answer: 3.21 µM

Question: What about the GI50 (OVCAR-8 ovarian) of the same molecule?
Answer: 1.95 µM

Question: And the TGI (OVCAR-8 ovarian)?
Answer: 3.41 µM

Question: What about the GI50 (PC-3 prostate) of the same molecule?
Answer: 2.52 µM

Question: What about the TGI (PC-3 prostate) of the same molecule?
Answer: 5.2 µM

Question: And the GI50 (RPMI-8226 leukemia)?
Answer: 0.2 µM

Question: And the TGI (RPMI-8226 leukemia)?
Answer: 0.346 µM

Question: What about the GI50 (RXF 393 renal) of the same molecule?
Answer: 2.13 µM

Question: What about the TGI (RXF 393 renal) of the same molecule?
Answer: 3.59 µM

Question: And the GI50 (SF-268 CNS)?
Answer: 5.61 µM

Question: What about the TGI (SF-268 CNS) of the same molecule?
Answer: 15.8 µM

Question: What about the GI50 (SF-295 CNS) of the same molecule?
Answer: 11.4 µM

Question: And the TGI (SF-295 CNS)?
Answer: 23.6 µM

Question: What about the GI50 (SF-539 CNS) of the same molecule?
Answer: 1.9 µM

Question: And the TGI (SF-539 CNS)?
Answer: 3.33 µM

Question: And the GI50 (SK-MEL-2 melanoma)?
Answer: 2.07 µM

Question: What about the TGI (SK-MEL-2 melanoma) of the same molecule?
Answer: 3.54 µM

Question: What about the GI50 (SK-MEL-28 melanoma) of the same molecule?
Answer: 10 µM

Question: What about the TGI (SK-MEL-28 melanoma) of the same molecule?
Answer: 21.7 µM

Question: What about the GI50 (SK-MEL-5 melanoma) of the same molecule?
Answer: 1.39 µM

Question: And the TGI (SK-MEL-5 melanoma)?
Answer: 2.98 µM

Question: And the GI50 (SK-OV-3 ovarian)?
Answer: 4.38 µM

Question: What about the TGI (SK-OV-3 ovarian) of the same molecule?
Answer: 15.4 µM

Question: What about the GI50 (SN12C renal) of the same molecule?
Answer: 1.88 µM

Question: And the TGI (SN12C renal)?
Answer: 3.29 µM

Question: What about the GI50 (SNB-19 CNS) of the same molecule?
Answer: 4.18 µM

Question: And the TGI (SNB-19 CNS)?
Answer: 12.4 µM

Question: What about the GI50 (SNB-75 CNS) of the same molecule?
Answer: 5.16 µM

Question: And the TGI (SNB-75 CNS)?
Answer: 11.3 µM

Question: And the GI50 (SW-620 colon)?
Answer: 2.01 µM

Question: What about the TGI (SW-620 colon) of the same molecule?
Answer: 3.48 µM

Question: And the GI50 (TK-10 renal)?
Answer: 1.61 µM

Question: And the TGI (TK-10 renal)?
Answer: 3.12 µM

Question: And the GI50 (U251 glioblastoma)?
Answer: 2.12 µM

Question: What about the TGI (U251 glioblastoma) of the same molecule?
Answer: 3.74 µM

Question: What about the GI50 (UACC-257 melanoma) of the same molecule?
Answer: 1.95 µM

Question: What about the TGI (UACC-257 melanoma) of the same molecule?
Answer: 3.81 µM

Question: And the GI50 (UACC-62 melanoma)?
Answer: 2.16 µM

Question: What about the TGI (UACC-62 melanoma) of the same molecule?
Answer: 4.2 µM
